Inhibition data for 16 molecules are collected here from patent US12522612B2, “PDE4 inhibitors, pharmaceutical compositions, and therapeutic applications” (BioTheryX, Inc., priority 2019, dated 2026).

This test deals with TNF-α. Put plainly: Cell-based TNF-α inhibition assay in LPS-induced PBMCs (Meso Scale). To be noted: PBMC, PBMCs pretreated 1 h, LPS 100 ng/mL 18-24 h, relative to stimulated DMSO control; for inhibition at 0.1 µM: compound concentration 0.1 μM; for inhibition at 1 µM: compound concentration 1 μM. The protocol:
Frozen primary blood mononuclear cells (PBMCs) were quick thawed, washed once with RPMI 1640 media supplemented with 10% fetal bovine serum, 1% penicillin, and 1% streptomycin, and plated in a 96 well plate at 200,000 cells per well. The cells were pretreated with DMSO only as a control or a compound for 1 h, and then induced with LPS (lipopolysaccharide) (100 ng/mL) for 18-24 h. The supernatant was analyzed for TNF-α using the Meso Scale assay. Compound activity was determined as a percentage of the stimulated DMSO control. The results are summarized in Table 1, where A represents a percent inhibition value ≥60%; B represents a percent inhibition value <60% and ≥40%; C represents a percent inhibition value <40% and >20%; and D represents a single percent inhibition value <20%.

A value given as a limit tells only on which side of the number the result lay.

Take `CCOc1cc([C@@H](CS(C)(=O)=O)N2Cc3c(csc3NC(=O)C(F)(F)F)C2=O)ccc1OC` [Compound A1, (S)—N-(5-(1-(3-ethoxy-4-methoxyphenyl)-2-(methylsulfonyl)ethyl)-4-oxo-5,6-dihydro-4H-thieno[3,4-c]pyrrol-1-yl)-2,2,2-trifluoroacetamide]: the inhibition (commonly the drop in the measured response relative to a control, in per cent) at 0.1 µM is < 20% and the inhibition at 1 µM was 40 to 60%. Taken in the same sequence, the figures for `CCOc1cc([C@@H](CS(C)(=O)=O)N2Cc3c(NC(=O)COC)csc3C2=O)ccc1OC` [Compound A2, (S)—N-(5-(1-(3-ethoxy-4-methoxyphenyl)-2-(methylsulfonyl)ethyl)-6-oxo-5,6-dihydro-4H-thieno[2,3-c]pyrrol-3-yl)-2-methoxyacetamide] were 20 to 40% and 20 to 40%. Consider `CCOc1cc([C@@H](CS(C)(=O)=O)N2Cc3c(NC(=O)C4CC4)csc3C2=O)ccc1OC` [Compound A3, (S)—N-(5-(1-(3-ethoxy-4-methoxyphenyl)-2-(methylsulfonyl)ethyl)-6-oxo-5,6-dihydro-4H-thieno[2,3-c]pyrrol-3-yl)cyclopropanecarboxamide], for which the inhibition at 0.1 µM was 20 to 40% and the inhibition at 1 µM lay within 20 to 40%. As for `COc1ccc([C@@H](CS(C)(=O)=O)N2C(=O)c3csc(NC(C)=O)c3C2=O)cc1OC1CC1` [Compound A4, (S)—N-(5-(1-(3-cyclopropoxy-4-methoxyphenyl)-2-(methylsulfonyl)ethyl)-4,6-dioxo-5,6-dihydro-4H-thieno[3,4-c]pyrrol-1-yl)acetamide], the inhibition at 0.1 µM is 40 to 60% and the inhibition at 1 µM is ≥ 60%.

Regarding `COc1ccc([C@H](CS(C)(=O)=O)N2C(=O)c3csc(NC(C)=O)c3C2=O)cc1OC1CC1` [Compound A5, (R)—N-(5-(1-(3-cyclopropoxy-4-methoxyphenyl)-2-(methylsulfonyl)ethyl)-4,6-dioxo-5,6-dihydro-4H-thieno[3,4-c]pyrrol-1-yl)acetamide], the inhibition at 0.1 µM is < 20% and the inhibition at 1 µM lay in the range of 20 to 40%. Consider `CCOc1cc([C@@H](CS(=O)(=O)C2CC2)N2C(=O)c3csc(NC(C)=O)c3C2=O)ccc1OC` [Compound A6, (S)—N-(5-(2-(cyclopropylsulfonyl)-1-(3-ethoxy-4-methoxyphenyl)ethyl)-4,6-dioxo-5,6-dihydro-4H-thieno[3,4-c]pyrrol-1-yl)acetamide], for which the inhibition at 0.1 µM is < 20% and the inhibition at 1 µM is 20 to 40%.

For `CCOc1cc([C@@H](CS(=O)(=O)C2CC2)N2C(=O)c3csc(NC(=O)C(F)(F)F)c3C2=O)ccc1OC` [Compound A7, (S)—N-(5-(2-(cyclopropylsulfonyl)-1-(3-ethoxy-4-methoxyphenyl)ethyl)-4,6-dioxo-5,6-dihydro-4H-thieno[3,4-c]pyrrol-1-yl)-2,2,2-trifluoroacetamide], the inhibition at 0.1 µM was < 20% and the inhibition at 1 µM is < 20%. For `CCOc1cc([C@H](CS(=O)(=O)C2CC2)N2C(=O)c3csc(NC(=O)C(F)(F)F)c3C2=O)ccc1OC` [Compound A8, (R)—N-(5-(2-(cyclopropylsulfonyl)-1-(3-ethoxy-4-methoxyphenyl)ethyl)-4,6-dioxo-5,6-dihydro-4H-thieno[3,4-c]pyrrol-1-yl)-2,2,2-trifluoroacetamide], the inhibition at 0.1 µM is < 20% and the inhibition at 1 µM is < 20%. On to `CCOc1cc([C@H](CS(=O)(=O)C2CC2)N2C(=O)c3csc(NC(=O)COC)c3C2=O)ccc1OC` [Compound A9, (R)—N-(5-(2-(cyclopropylsulfonyl)-1-(3-ethoxy-4-methoxyphenyl)ethyl)-4,6-dioxo-5,6-dihydro-4H-thieno[3,4-c]pyrrol-1-yl)-2-methoxyacetamide], for which the inhibition at 0.1 µM was in the range of 40 to 60% and the inhibition at 1 µM was ≥ 60%.

As for `CCOc1cc([C@H](CS(=O)(=O)C2CC2)N2C(=O)c3csc(NC(C)=O)c3C2=O)ccc1OC` [Compound A10, (R)—N-(5-(2-(cyclopropylsulfonyl)-1-(3-ethoxy-4-methoxyphenyl)ethyl)-4,6-dioxo-5,6-dihydro-4H-thieno[3,4-c]pyrrol-1-yl)acetamide], the inhibition at 0.1 µM is < 20% and the inhibition at 1 µM was ≥ 60%. For the molecule `CCOc1cc([C@@H](CS(=O)(=O)C2CC2)N2C(=O)c3csc(NC(=O)COC)c3C2=O)ccc1OC` [Compound A11, (S)—N-(5-(2-(cyclopropylsulfonyl)-1-(3-ethoxy-4-methoxyphenyl)ethyl)-4,6-dioxo-5,6-dihydro-4H-thieno[3,4-c]pyrrol-1-yl)-2-methoxyacetamide], the inhibition at 0.1 µM lay within 20 to 40% and the inhibition at 1 µM was ≥ 60%.

`CCOc1cc([C@@H](CS(C)(=O)=O)N2C(=O)c3cc(CCCCC(=O)N4CCC(C#Cc5cccc6c5CN(C5CCC(=O)NC5=O)C6=O)CC4)cc(NC(C)=O)c3C2=O)ccc1OC` (stereo partly drawn) [Compound B16, N-(6-(5-(4-((2-(2,6-dioxopiperidin-3-yl)-1-oxoisoindolin-4-yl)ethynyl)piperidin-1-yl)-5-oxopentyl)-2-((S)-1-(3-ethoxy-4-methoxyphenyl)-2-(methylsulfonyl)ethyl)-1,3-dioxoisoindolin-4-yl)acetamide]: the inhibition at 0.1 µM was ≥ 60% and the inhibition at 1 µM is ≥ 60%. For the molecule `CCOc1cc([C@@H](CS(C)(=O)=O)N2C(=O)c3cccc(NC(=O)CCOCCOCCOCCNc4cccc5c4C(=O)N(C4CCC(=O)NC4=O)C5=O)c3C2=O)ccc1OC` (stereo partly drawn) [Compound B43, 3-(2-(2-(2-((2-(2,6-Dioxopiperidin-3-yl)-1,3-dioxoisoindolin-4-yl)amino)ethoxy)-ethoxy)ethoxy)-N-(2-((S)-1-(3-ethoxy-4-methoxyphenyl)-2-(methylsulfonyl)ethyl)-1,3-dioxoisoindolin-4-yl)propanamide], the inhibition at 0.1 µM is ≥ 60% and the inhibition at 1 µM was ≥ 60%.

For the molecule `CCOc1cc([C@@H](CS(C)(=O)=O)N2C(=O)c3cccc(NC(=O)CCCCCCNCc4ccc(OCc5scc6c5CN([C@H]5CCC(=O)NC5=O)C6=O)cc4)c3C2=O)ccc1OC` [Compound B44, 7-((4-((5-((S)-2,6-Dioxopiperidin-3-yl)-4-oxo-5,6-dihydro-4H-thieno[3,4-c]pyrrol-1-yl)methoxy)benzyl)amino)-N-(2-((S)-1-(3-ethoxy-4-methoxyphenyl)-2-(methylsulfonyl)ethyl)-1,3-dioxoisoindolin-4-yl)heptanamide], the inhibition at 1 µM was ≥ 60%. Still for that read-out and setting: under `O=C1CCC(N2Cc3c(cc(F)cc3C3CCN(CCCCCCCCCOc4cc(C(=O)Nc5c(Cl)cncc5Cl)ccc4OC(F)F)CC3)C2=O)C(=O)N1` (centres unmarked) [Compound B45, N-(3,5-Dichloropyridin-4-yl)-4-(difluoromethoxy)-3-((9-(4-(2-(2,6-dioxopiperidin-3-yl)-6-fluoro-1-oxoisoindolin-4-yl)piperidin-1-yl)nonyl)oxy)benzamide] stands ≥ 60%; under `O=C1CCC(N2Cc3c(cc(F)cc3C3CCN(CCCCCOc4cc(C(=O)Nc5c(Cl)cncc5Cl)ccc4OC(F)F)CC3)C2=O)C(=O)N1` (centres unmarked) [Compound B46, N-(3,5-Dichloropyridin-4-yl)-4-(difluoromethoxy)-3-((5-(4-(2-(2,6-dioxopiperidin-3-yl)-6-fluoro-1-oxoisoindolin-4-yl)piperidin-1-yl)pentyl)oxy)benzamide], ≥ 60%.
